Test system: Karpas cells
Assay: Detection of surface protein combinations of the protein network on untreated (V1) and actinonin-treated (V2) Karpas cells
Assay type: cell-based
Settings: for V2 no. of cells: actinonin-treated Karpas cells
Description: Principally, detecting of the surface protein combinations may comprise procedural steps of an automated method for determining molecular classes, molecular groups or molecular parts in a solid or liquid object according to DE 197 09 348 C. In these steps, surface proteins may be examined and measured in one and the same object, i.e. in a sample of immune cells and/or tumor cells for example, by sequentially applying reagent solutions Yn (n=1,2,3, . . . N) by means of an automated apparatus, said procedural steps being: I. taking a first reagent solution Y1 from a vessel containing the reagent solution, II. applying said reagent solution Y1 to the object which is on an object slide, III. allowing the reagent solution to react for an automatically set period of time, IV. recording at least one individual labeling pattern of the object previously labeled with said first reagent solution Y1, V. repeating steps I-IV by applying said first reagent solution Y1 or a second reagent solution Y2 or a mixture of said first and second reagent solutions, and VI. repeating steps I to V with further reagent solutions Yn (n=2,3, . . . N) or a mixture thereof and whereby the labeling distribution patterns obtained in each cycle of the method are turned into a complex molecular combination pattern of the object to be examined by computer-aided image overlay. From this combination pattern, information may be gained on the presence of the above mentioned proteins, thus also allowing detection of the surface protein combinations, if the reagent solutions used contain labeled substances directed against the proteins in question. In numerous examinations, it was possible to identify the 30 cell surface proteins already listed above which belong to a specific protein network controlling the early polarization stages of tumor cells and immune cells. In a further examination, surface protein combinations of this protein network of Karpas cells were detected, both in untreated form and after treatment with the aminopeptidase inhibitor actinonin. For this purpose, two groups V1 and V2 of Karpas cells were formed, with the cells of group Vl remaining untreated, while the cells of group V2 were treated with actinonin. Table 2 lists those surface protein combinations which are present both in the actinonin-treated cells and in the untreated cells. However, this table and the further tables 3 and 4 only give examples of 18 of the 30 proteins, with the detected proteins being designated 1 and the non-detected proteins being designated 0. The proteins are continuously numbered 1 to 18, with the nomenclature being notable from table 1. [table] The cell numbers stated in tables 2 to 4 refer to each 1,000 cells examined in groups V1 and V2. Table 3 lists the surface protein combinations which only occur in the untreated Karpas cells and are never found in the actinonin-treated Karpas cells. The number of protein combinations listed in this table 3 amounts to 131. Finally, table 4 exclusively lists those surface protein combinations which occur exclusively in the actinonin-treated Karpas cells. It may be gathered from tables 2 to 4 that, if one examines merely 18 proteins of the 30 proteins, a total of 394 different surface protein combinations will occur, with a total of 334 different combinations occurring in the untreated cells and a total of 263 different combinations being detected in the treated cells.

Q: What does the source list for CCCCC[C@H](CC(=O)NO)C(=O)N[C@H](C(=O)N1CCC[C@H]1CO)C(C)C [actinonin]?
A: V2 No. of cells In 1/1000 (actinonin-treated Karpas cells (V2), surface protein combination No. 118, binary code 000100010100000000): 0.0 1/1000; V2 No. of cells In 1/1000 (actinonin-treated Karpas cells (V2), surface protein combination No. 119, binary code 000100010001011000): 0.0 1/1000; V2 No. of cells In 1/1000 (actinonin-treated Karpas cells (V2), surface protein combination No. 120, binary code 000100001001001000): 0.0 1/1000; V2 No. of cells In 1/1000 (actinonin-treated Karpas cells (V2), surface protein combination No. 121, binary code 000100000101001000): 0.0 1/1000; V2 No. of cells In 1/1000 (actinonin-treated Karpas cells (V2), surface protein combination No. 122, binary code 000100000101000000): 0.0 1/1000; V2 No. of cells In 1/1000 (actinonin-treated Karpas cells (V2), surface protein combination No. 123, binary code 000100000011000000): 0.0 1/1000; V2 No. of cells In 1/1000 (actinonin-treated Karpas cells (V2), surface protein combination No. 124, binary code 000000011101011000): 0.0 1/1000; V2 No. of cells In 1/1000 (actinonin-treated Karpas cells (V2), surface protein combination No. 125, binary code 000000011000001000): 0.0 1/1000; V2 No. of cells In 1/1000 (actinonin-treated Karpas cells (V2), surface protein combination No. 126, binary code 000000010100000100): 0.0 1/1000; V2 No. of cells In 1/1000 (actinonin-treated Karpas cells (V2), surface protein combination No. 127, binary code 000000010000011000): 0.0 1/1000; V2 No. of cells In 1/1000 (actinonin-treated Karpas cells (V2), surface protein combination No. 128, binary code 000000010000000100): 0.0 1/1000; V2 No. of cells In 1/1000 (actinonin-treated Karpas cells (V2), surface protein combination No. 129, binary code 000000001011000000): 0.0 1/1000; V2 No. of cells In 1/1000 (actinonin-treated Karpas cells (V2), surface protein combination No. 130, binary code 000000000001001100): 0.0 1/1000; V2 No. of cells In 1/1000 (actinonin-treated Karpas cells (V2), surface protein combination No. 131, binary code 000000000001000100): 0.0 1/1000; V2 no. of cells In 1/1OOO, total (actinonin-treated Karpas cells (V2), total over all 203 protein combinations of Table 2): 990.9 1/1OOO; V2 No. of cells In 1/1000, total (actinonin-treated Karpas cells (V2), total over the 131 surface protein combinations of Table 3): 0 1/1000; V2 no. of cells (protein code No. 1, proteins 1-18 binary 000000000000000000): 153.2 1/1OOO; V2 no. of cells (protein code No. 2, proteins 1-18 binary 001000010101001000): 91.9 1/1OOO; V2 no. of cells (protein code No. 3, proteins 1-18 binary 001000010001000000): 57.6 1/1OOO; V2 no. of cells (protein code No. 4, proteins 1-18 binary 000000010001000000): 62.2 1/1OOO; V2 no. of cells (protein code No. 5, proteins 1-18 binary 001000010001001000): 37.9 1/1OOO; V2 no. of cells (protein code No. 6, proteins 1-18 binary 001000010101000000): 44.3 1/1OOO; V2 no. of cells (protein code No. 7, proteins 1-18 binary 001100010101001000): 37.6 1/1OOO; V2 no. of cells (protein code No. 8, proteins 1-18 binary 000000010000000000): 41.8 1/1OOO; V2 no. of cells (protein code No. 9, proteins 1-18 binary 001000010111001000): 31.4 1/1OOO; V2 no. of cells (protein code No. 10, proteins 1-18 binary 001100010111011000): 29.7 1/1OOO; V2 no. of cells (protein code No. 11, proteins 1-18 binary 000000000001000000): 29.3 1/1OOO; V2 no. of cells (protein code No. 12, proteins 1-18 binary 001100010111001000): 24.2 1/1OOO; V2 no. of cells (protein code No. 13, proteins 1-18 binary 001000010011001000): 15.4 1/1OOO; V2 no. of cells (protein code No. 14, proteins 1-18 binary 000000010101000000): 22.3 1/1OOO; V2 no. of cells (protein code No. 15, proteins 1-18 binary 101100010111011000): 17.3 1/1OOO; V2 no. of cells (protein code No. 16, proteins 1-18 binary 001000010111011000): 15.0 1/1OOO; V2 no. of cells (protein code No. 17, proteins 1-18 binary 001000010101011000): 15.5 1/1OOO; V2 no. of cells (protein code No. 18, proteins 1-18 binary 001100010101011000): 9.7 1/1OOO; V2 no. of cells (protein code No. 19, proteins 1-18 binary 000000010101001000): 13.4 1/1OOO; V2 no. of cells (protein code No. 20, proteins 1-18 binary 000000000100000000): 14.5 1/1OOO; V2 no. of cells (protein code No. 21, proteins 1-18 binary 001100010001001000): 6.3 1/1OOO; V2 no. of cells (protein code No. 22, proteins 1-18 binary 001000010011000000): 6.7 1/1OOO; V2 no. of cells (protein code No. 23 (second line so numbered), proteins 1-18 binary 000000000101000000): 11.0 1/1OOO; V2 no. of cells (protein code No. 23, proteins 1-18 binary 001000000001000000): 7.4 1/1OOO; V2 no. of cells (protein code No. 24, proteins 1-18 binary 001000010000000000): 5.7 1/1OOO; V2 no. of cells (protein code No. 25, proteins 1-18 binary 000000000000001000): 7.3 1/1OOO; V2 no. of cells (protein code No. 27, proteins 1-18 binary 010000001100000000): 7.5 1/1OOO; V2 no. of cells (protein code No. 28, proteins 1-18 binary 000000010100000000): 8.9 1/1OOO; V2 no. of cells (protein code No. 29, proteins 1-18 binary 000000010001001000): 7.0 1/1OOO; V2 no. of cells (protein code No. 30, proteins 1-18 binary 001100010011001000): 4.0 1/1OOO; V2 no. of cells (protein code No. 31, proteins 1-18 binary 101000010111011000): 2.8 1/1OOO; V2 no. of cells (protein code No. 32, proteins 1-18 binary 000000001000000000): 6.1 1/1OOO; V2 no. of cells (protein code No. 33, proteins 1-18 binary 001000010111000000): 5.3 1/1OOO; V2 no. of cells (protein code No. 34, proteins 1-18 binary 001000010011011000): 3.2 1/1OOO; V2 no. of cells (protein code No. 35, proteins 1-18 binary 001000010001011000): 4.8 1/1OOO; V2 no. of cells (protein code No. 37, proteins 1-18 binary 010000001100001000): 3.9 1/1OOO; V2 no. of cells (protein code No. 38 (first line so numbered), proteins 1-18 binary 000000001100000000): 5.4 1/1OOO; V2 no. of cells (protein code No. 38 (second line so numbered), proteins 1-18 binary 001000011101001000): 4.3 1/1OOO; V2 no. of cells (protein code No. 39, proteins 1-18 binary 000000010011000000): 2.5 1/1OOO; V2 no. of cells (protein code No. 40, proteins 1-18 binary 001000000101000000): 4.7 1/1OOO; V2 no. of cells (protein code No. 41, proteins 1-18 binary 001100010011011000): 4.0 1/1OOO; V2 no. of cells (protein code No. 42, proteins 1-18 binary 001100010101000000): 0.8 1/1OOO; V2 no. of cells (protein code No. 43, proteins 1-18 binary 001000000000000000): 2.8 1/1OOO; V2 no. of cells (protein code No. 44, proteins 1-18 binary 001000011101000000): 3.7 1/1OOO; V2 no. of cells (protein code No. 45, proteins 1-18 binary 001100010001000000): 0.6 1/1OOO; V2 no. of cells (protein code No. 46, proteins 1-18 binary 001000011001000000): 2.5 1/1OOO; V2 no. of cells (protein code No. 47, proteins 1-18 binary 010000001100001100): 2.2 1/1OOO; V2 no. of cells (protein code No. 48, proteins 1-18 binary 101100010101011000): 2.2 1/1OOO; V2 no. of cells (protein code No. 49, proteins 1-18 binary 001000010100000000): 2.7 1/1OOO; V2 no. of cells (protein code No. 50, proteins 1-18 binary 011000011101001000): 2.4 1/1OOO; V2 no. of cells (protein code No. 51, proteins 1-18 binary 001000011111001000): 2.0 1/1OOO; V2 no. of cells (protein code No. 52, proteins 1-18 binary 001100010001011000): 1.0 1/1OOO; V2 no. of cells (protein code No. 53, proteins 1-18 binary 001000010000001000): 1.0 1/1OOO

Source: US20030130180A1, “Utilization of an aminopeptidase inhibitor” (priority 2000, published 2003)
